Test results from publication doi:10.1101/580449v1 (biorxiv, 2019).

Assays:
[1] = biological target: T1, CSTZM (wildtype sequence) (Zea mays, UniProt B4FZ94); test: GFP-thermal shift titration; format: binding
T1 sequence (B4FZ94 1-322): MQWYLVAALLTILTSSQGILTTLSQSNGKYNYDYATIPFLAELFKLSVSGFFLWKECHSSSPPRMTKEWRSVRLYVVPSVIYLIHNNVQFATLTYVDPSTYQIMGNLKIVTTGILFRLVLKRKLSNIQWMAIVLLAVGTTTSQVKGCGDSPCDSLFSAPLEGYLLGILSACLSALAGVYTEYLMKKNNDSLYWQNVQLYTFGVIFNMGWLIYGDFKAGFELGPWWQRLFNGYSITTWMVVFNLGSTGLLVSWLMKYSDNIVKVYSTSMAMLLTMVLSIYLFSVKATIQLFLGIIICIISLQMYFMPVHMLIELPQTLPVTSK

hCST = biological target: T2, hCST (Homo sapiens, UniProt P78382); test: GFP-thermal shift titration; format: binding
T2 sequence (P78382 1-337): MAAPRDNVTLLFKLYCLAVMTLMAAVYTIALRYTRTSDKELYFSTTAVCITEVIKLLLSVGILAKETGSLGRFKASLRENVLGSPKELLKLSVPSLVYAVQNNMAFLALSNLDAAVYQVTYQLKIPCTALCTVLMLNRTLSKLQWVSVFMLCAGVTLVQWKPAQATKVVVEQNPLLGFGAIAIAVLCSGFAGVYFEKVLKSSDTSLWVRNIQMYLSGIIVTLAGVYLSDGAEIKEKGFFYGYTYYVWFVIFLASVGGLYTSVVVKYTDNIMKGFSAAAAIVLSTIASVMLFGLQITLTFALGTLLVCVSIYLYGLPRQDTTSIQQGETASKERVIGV

Kd [1] [µM] | Kd (hCST) [µM] | SMILES
3100 ± 200 | 1500 ± 300 | CC(=O)N[C@H]1[C@H]([C@H](O)[C@H](O)CO)O[C@](OP(=O)(O)OC[C@H]2O[C@@H](n3ccc(N)nc3=O)[C@H](O)[C@@H]2O)(C(=O)O)C[C@@H]1O [CMP-sialic acid]
40 | 40 | Nc1ccn([C@@H]2O[C@H](COP(=O)(O)O)[C@@H](O)[C@H]2O)c(=O)n1 [CMP]
